Test results: patent publication US20080089860A1, “Therapeutic compositions and methods useful in treating cancer” (priority 2006, published 2008)
“Also recorded” adds a separate entry of the source.

Key:
[1] = test system: MDA231 cells; experiment: MDA231 breast cancer cell growth, MTT assay; format: cell-based, human; details: single agent, 50 μg/ml and 100 μg/ml
Method: For cell proliferation assays, cells were grown in 10% FCS culture medium containing various amounts of IFNs and/or sodium stibogluconate in 96 well plates and cultured at 37° C. for 3 or 6 days as indicated. The numbers of viable cells in proliferation assays were determined by MTT assays as described in Phatak et al., J. Immunol. 167, 3391 (2001).

[2] = biological target: T1, intracellular Flag-PRL-2 (Homo sapiens, UniProt Q12974); experiment: Immunocomplex PTPase assay, Flag-PRL-2 NIH3T3 transfectants; format: cell-based
T1 construct: expressed in transfected cells; host or cells: NIH3T3 (pBabepuro, puromycin-selected)
Method: Immunocomplex PTPase assays were performed to assess the effects of sodium stibogluconate on intracellular PTPases. Cells were untreated or treated with sodium stibogluconate for 5 minutes, washed with fresh medium and then lysed in cold lysis buffer (50 mM Tris, pH 7.4; 150 mM NaCl; 1% NP40; 2 mM PMSF; 20 μg/ml of Aprotinin). The lysates were incubated with an anti-Flag antibody in immunoprecipitation assays. The immunocomplexes were collected with protein G sepharose beads (Pharmacia) and washed in cold lysis buffer for 4 times. […] C. for 18 hrs. 100 µL of malachite green solution (UBI) was added to each reaction prior to measurement of OD660 to quantify the amounts of free phosphate cleaved by the PTPases from the peptide substrate (Pathak et al., J. Imumol. 167, 3391 (2001)). The remaining 10% contents of individual samples were analyzed by SDS-PAGE/Western blotting to quantify the relative amounts of the phosphatase proteins. […]
The effects of sodium stibogluconate on intracellular PTPases were assessed using NIH3T3 or WM9 transfectants. […]

[3] = test system: Jurkat cells; experiment: IFN-gamma secretion by Jurkat cells, ELISA; format: cell-based, human; details: 16 hrs
Method: Jurkat cells were cultured in the absence or presence of various amounts of SSG for 16 hours. The cells and culture medium supernatants were separated by centrifugation (1,000 g, 10 min). The amounts of IFN-gamma in the culture medium supernatants were quantified using an ELISA kit (R.D. system, Minneapolis, Minn.) following the manufacturer's protocol.

[4] = test system: A549, Hey, LoVo, SK-N-SH, U251 and DU145 cell lines; experiment: Growth of human cancer cell lines that express PRLs, MTT assay; format: cell-based; details: 100 μg/ml, day 6
Method: NIH3T3 (Yi, et al., Blood 85, 87 (1995)), WM9 (Forsberg, et al., Proc. Nat. Acad. Sci. USA 90, 393 (1993)), DU145 (Mickey, et al., Cancer Res. 37, 4049 (1977)), LoVo (Drewinko, et al., Cancer Res. 36, 467 (1976)), HEY (Buick, et al., Cancer Res. 45, 3668 (1985)), U251 (Yoshida, et al., Cancer 50, 410 (1982)), A549 (Giard, et al., J. Natl. Cancer Inst. 51, 1417 (1973)) and SK-N-SH (Helson, et al., Cancer Res. 35, 2594 (1975)) cell lines have been described and were cultured in RPMI 1640 supplemented with 10% fetal calf serum (FCS). For measurement of sodium stibogluconate effects on cell growth in vitro, cells were cultured in the absence (−) or presence (+) of various amounts of sodium stibogluconate for 6 days with viable cells quantified by MTT assays (Mosmann, J. Immunol. Methods 65, 55 (1983)). Percentages of growth inhibition by sodium stibogluconate were calculated (.+−.x %).

[5] = test system: tumor-infiltrating and spleen macrophages (F4/80+), T and NK cells; experiment: Immunohistochemistry of Renca tumors and spleen, Balb/c mice; details: mouse, in vivo
Method: Major internal organs and Renca tumors harvested from mice were fixed in 10% formalin or snap frozen in liquid nitrogen. H & E-stained tissue sections of the fixed samples were prepared and evaluated by microscopy as described previously (Yi, T., M. K. Pathak, D. J. Lindner, M. E. Ketterer, C. Farver, and E. C. Borden. 2002. Anticancer activity of sodium stibogluconate in synergy with IFNs. J Immunol 169:5978). Preparation of frozen tissue sections and immunohistochemistry were performed following established procedures (Joliat, M. J., P. A. Lang, B. L. Lyons, L. Burzenski, M. A. Lynes, T. Yi, J. P. Sundberg, and L. D.
The sections were counterstained with Mayer's hematoxylin prior to microscopic examination. Tissue sections of 2 mice/group were evaluated. The number of immune cells was semi-quantified based on the following scheme: +, 0-1 positive cells/40×field; +, 2-5 positive cells/40×field; ++, 6-10 positive cells/40×field, etc.

[6] = cited from earlier work
[7] = test system: Renca cells; experiment: Renca cell growth in culture, MTT assay; format: cell-based, murine; details: SSG 6.25-200 μg/ml, 6 days; listed as SSG
Text: Renca (Murphy, G. P., and W. J. Hrushesky. 1973. A murine renal cell carcinoma. J Natl Cancer Inst 50:1013), Jurkat (Gillis, S., and J. Watson. 1980. Biochemical and biological characterization of lymphocyte regulatory molecules. V. Identification of an interleukin 2-producing human leukemia T cell line. J Exp Med 152:1709) and WM9 (Forsberg, K., 1. Valyi-Nagy, C. H. Heldin, M. Herlyn, and B. Westermark. 1993. Platelet-derived growth factor (PDGF) in oncogenesis: development of a vascular connective tissue stroma in xenotransplanted human melanoma producing PDGF-BB. Proc Natl Acad Sci USA 90:393) cell lines were obtained from a colleague at the Cleveland Clinic Foundation (CCF) and cultured in RPMI 1640 medium supplemented with 10% fetal calf serum (FCS). […] SSG has been described previously (Yi, T., M. K. Pathak, D. J. Lindner, M. E. Ketterer, C. Farver, and E. C. Borden. 2002. Anticancer activity of sodium stibogluconate in synergy with IFNs. J Immunol 169:5978). For cell growth inhibition assays, cells were cultured in absence or presence of various amounts of SSG for 6 days with viable cells quantified by MTT assays as described elsewhere (Pathak, M. K., and T. Yi. 2001. Sodium stibogluconate is a potent inhibitor of protein tyrosine phosphatases and augments cytokine responses in hemopoietic cell lines. J Immunol 167:3391).

T1 sequence (Q12974 whole entry): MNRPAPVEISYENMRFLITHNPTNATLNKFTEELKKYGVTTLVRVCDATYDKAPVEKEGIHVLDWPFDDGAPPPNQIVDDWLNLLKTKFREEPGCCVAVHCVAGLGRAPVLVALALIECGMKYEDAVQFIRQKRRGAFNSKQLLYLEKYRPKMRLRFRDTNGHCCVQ

**Q.** Which results are given for O.O.O.O.O.O.O.O.O.O=C([O-])[C@@H]1[O][Sb]2([O-])([O][Sb]34([OH])[O][C@H]([C@H](O)CO)[C@H]([O]3)[C@H](C(=O)[O-])[O]4)[O][C@H]([C@H](O)CO)[C@@H]1[O]2.[Na+].[Na+].[Na+] [sodium stibogluconate]?
**A.** MDA231 cells in day 6 culture [1]: killed all cells; also recorded: complete or near complete killing; time required for full removal of effect on intracellular PRL-2 activity [2]: at least 24 hours; PTPase activity of immunocomplexes from treated Flag-PRL-2 transfectants ([2]; cells treated 5 min): lack of PTPase activity; IFN-gamma secretion by Jurkat T cells [3]: increased amounts of IFN-gamma; cell killing of the cell lines [4]: near-complete cell killing; numbers of tumor-infiltrating T cells or NK cells [5]: little effect; clinical tolerability at therapeutic dosages ([6]; human, in vivo): well tolerated; serum levels ([6]; standard dosage 10-20 mg/kg/day): ≥ 10 µg/mL; Renca cell growth in culture [7]: failed to inhibit Renca cell proliferation in culture
